Measurements as given in US20060234866A1, “Formulations with the capacity to increase the efficiency of plants to assimilate different mineral nutrients, especially iron, in normal conditions and in conditions of deficiency of potentially assimilable iron” (Inabonos, S.A., a Spanish joint venture company, priority 2005, published 2006).

Test system: pepper plants
Assay: Iron assimilation and development of pepper plants cultivated in hydroponia
Assay type: in vivo
Experimental: Four different treatments are presented that are applied to peppers: • 1. The control received a nutritive solution containing different nutrients. • 2. The treatment AIA that received the same nutritive control solution was also treated with indol-acetic acid (natural auxin) at a dose of 10^−6 M. • 3. […] The treatment IND2 that received the same nutritive control solution was also treated with the composition of Example 1 at a dose of 10^−9 M. The pepper plants were cultivated in hydroponia.

[1] = dose 10^−6 M in nutritive solution

## O=C(O)Cc1c[nH]c2ccccc12 [AIA, indol-acetic acid]
[1]
  Assimilated Fe, leaves: 0.335 mg plant^−1
  Assimilated Fe, root: 2.90 mg plant^−1
  Dry matter, leaves: 4.04 g plant^−1
  Dry matter, root: 1.43 g plant^−1
  Dry matter, stem: 1.09 g plant^−1
Dose 10^−6 M, control = 100
  Assimilated Fe, leaves (% of control): 103.4%
  Assimilated Fe, root (% of control): 109.8%
  Dry matter, leaves (% of control): 136%
  Dry matter, root (% of control): 130%
  Dry matter, stem (% of control): 138%
Versus control
  assimilation and translocation of iron (in words): no significant effects
  biostimulant effect (in words): presents a biostimulant effect
